Reference: patent US11414424B2, “Cardiac sarcomere inhibitors” (Cytokinetics, Inc., priority 2018, dated 2022)
One block for each compound: values may come before it.

Tests used:
[1] = tested on: bovine cardiac myofibrils; experiment: Myofibril assay: PK/LDH-coupled steady-state ATPase activity of skinned bovine cardiac myofibrils; format: biochemical; conditions: Ca2+ activating to 75% of maximal rate
Outline: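 Steady-state ATPase of detergent-skinned bovine left-ventricular myofibrils (1 mg/mL), PK/LDH-coupled NADH read at 340 nm, in PIPES/MgCl2 buffer pH 6.8 with 50 μM ATP, 0.6 mM EGTA and CaCl2 set for 50% or 75% activation. Inhibition of activity measured.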

[2] = tested on: adult cardiac ventricular rat myocytes; experiment: Adult ventricular myocyte contractility (fractional shortening); format: cell-based; conditions: 5 min perfusion
Protocol: Adult male Sprague-Dawley rats were anesthetized and the hearts were quickly excised, rinsed and the ascending aorta was cannulated. Continuous retrograde perfusion was initiated on the hearts at a perfusion pressure of 60 cm H2O. Hearts were first perfused with a nominally Ca^2+-free modified Krebs solution of the following composition: 113 mM NaCl, 4.7 mM KCl, 0.6 mM KH2PO4, 0.6 mM Na2HPO4, 1.2 mM MgSO4, 12 mM NaHCO3, 10 mM KHCO3, 30 mM taurine, 5.5 mM glucose and 10 mM Hepes (all Sigma). This medium was not recirculated and was continually aerated with a 95% O2/5% CO2 mixture. After approximately 3 minutes, the heart was perfused with a modified Krebs buffer supplemented with collagenase (Worthington) and 12.5 μM final calcium concentration. The heart was removed from the cannulae after the heart appeared blanched and soft in appearance. The atria and vessels were removed and the ventricles were gently dissected into smaller pieces with forceps. The tissue was homogenized by repeated pipette trituration and the collagenase reaction was stopped by 10% bovine calf serum (BCS), sedimentation and resuspension in perfusion buffer containing 5% BCS and 12.5 uM CaCl2. Myocytes were made calcium tolerant by stepwise addition of a CaCl2 solution to a final concentration of 1.2 mM. Cells were then washed and resuspended in Tyrode's buffer (137 mM NaCl, 3.7 mM KCl, 0.5 mM MgCl, 11 mM glucose, 4 mM Hepes, and 1.2 mM CaCl2, pH 7.4). Cells were kept for 60 min at 37° C. prior to initiating experiments and used within 5 hrs of isolation. […] Additionally, only cells whose basal contractility was between 3 and 8% were used in subsequent experiments with compounds.
Aliquots of myocytes in Tyrode's buffer were placed in perfusion chambers (series 20 RC-27NE; Warner Instruments) complete with heating platforms. Myocytes were allowed to attach, the chambers were heated to 37° C., and the cells were perfused with 37° C. Tyrode's buffer. Myocytes were field stimulated at 1 Hz in with platinum electrodes (20% above threshold). Only cells that had clear striations and were quiescent prior to pacing were used for contractility experiments. To determine basal contractility, myocytes were imaged through a 40× objective. […] Once cell contraction was stable over time, test compounds (0.01-15 μM) were perfused into the chambers on the myocytes for 5 minutes. Contractility of the myocytes and contraction and relaxation velocities were then recorded using edge detection.
Five or more individual myocytes were tested per compound from two or more different myocyte preparations. For each cell, twenty or more contractility transients at basal (defined as 1 min prior to compound infusion) and after compound addition (defined as 5 min after starting compound perfusion), were averaged and compared. These average transients were analyzed using the IonWizard software (IonOptix) to determine changes in diastolic length and fractional shortening. Fractional shortening was calculated as: ((resting length−length at peak contraction) divided by the resting length). The percent change in fractional shortening from baseline was calculated as: ((post-dose fractional shortening/basal fractional shortening)*100). The percent reduction in fractional shortening from baseline was calculated as: (100−percent change in fractional shortening from baseline). Maximum contraction and relaxation velocities (um/sec) was also determined. Results from individual cells were averaged and the SEM was calculated.

male Sprague Dawley rats [3] = experiment: Echocardiography assessment of acute pharmacodynamic effect on rat cardiac contractility, oral dosing; format: in vivo
Protocol: (§1) Assessment of in vivo cardiac function by echocardiography was performed in male Sprague Dawley rats under isoflurane (1-3%) anesthesia. 2-D M-mode images of the left ventricle were acquired in the parasternal long-axis view before, during, and after administration of compounds by continuous IV infusion or oral gavage. In vivo fractional shortening was determined by M-mode image analysis with the following calculation: ((End diastolic diameter−end systolic diameter)/end diastolic diameter×100). For continuous IV infusion experiments, three pre-dose baseline M-mode images were taken at 1 minute intervals prior to infusion of compound. Compounds were formulated in 50% Propylene Glycol (PG): 16% Captisol: 10% dimethylacetamide (DMA) and delivered via a jugular vein catheter at the rate of 1 mL/kg/h. During infusion, M-mode images were taken at 5 minute intervals. The infusion was stopped when fractional shortening reached up to a 60% reduction from baseline. Blood samples were taken to determine the plasma concentration of the compounds. Data were reported as an estimated IC50 value, which is the concentration at which fractional shortening is 50% of the pre-dose baseline contractility.
For oral dosing studies, three pre-dose baseline M-Mode images were taken at 1 minute intervals prior to compound administration. Compounds were formulated in a 0.5% hydroxypropyl methylcellulose 2910 (HPMC 2910): 0.1% Tween 80 suspension and delivered as a single dose (5 mL/kg) by oral gavage. At one and four hours post-dose, rats were lightly anesthetized for M-mode echocardiography measurement. The compound effect on cardiac fractional shortening are presented as a percent reduction of baseline fractional shortening (=100%) in Table D.
Concurrent with echocardiography measurements, blood samples are taken to determine the corresponding compound plasma concentration, which may be represented as IC50 and IC10 values, which is the concentration at which fractional shortening is 50% and 10% of the pre-dose baseline contractility, respectively.

male Sprague Dawley rats [4] = experiment: Echocardiography assessment of acute pharmacodynamic effect on rat cardiac contractility, continuous IV infusion; format: in vivo; conditions: estimated plasma concentration at which fractional shortening is 50% of the pre-dose baseline contractility, read-out: IC50 (mean ± SD)
Protocol: as §1

Compound: CC(C)N1CC(=O)N(Cc2ccc(Cl)cc2)C(c2ccc(Cl)cc2)C1=O (single isomer, unassigned) [Compound 288A, 3-(4-chlorophenyl)-4-[(4-chlorophenyl)methyl]-1-(propan-2-yl)piperazine-2,5-dione]
- CDMF75 IC15 [1]: 0.8 µM
- % FS (% reduction from baseline) ± SEM ([2]; 5 μM): 64.4 ± 9.7%

Compound: CNC(=O)N1CC2(C1)C(=O)N(c1ccc(Cl)cc1)CC(=O)N2Cc1ccc(C(F)(F)F)cc1 [Compound 150, 8-(4-chlorophenyl)-N-methyl-6,9-dioxo-5-(4-(trifluoromethyl)benzyl)-2,5,8-triazaspiro[3.5]-nonane-2-carboxamide]
- CDMF75 IC15 [1]: 1.1 µM
- IC50 (male Sprague Dawley rats [4]): 5.44 ± 0.12 µM

Compound: N#Cc1ccc(N2CC(=O)N(Cc3ccc(C(F)(F)F)cc3)C3(CN(C=O)C3)C2=O)c(F)c1 [Compound 179, 3-fluoro-4-(2-formyl-6,9-dioxo-5-(4-(trifluoro-methyl)benzyl)-2,5,8-triazaspiro[3.5]nonan-8-yl)benzonitrile]
- CDMF75 IC15 [1]: 0.3 µM
- FS (% reduction from baseline) at 1 h (Mean ± SEM) (male Sprague Dawley rats [3]; 3 mg/kg oral): 33.8 ± 2.6%
- FS (% reduction from baseline) at 4 h (Mean ± SEM) (male Sprague Dawley rats [3]; 3 mg/kg oral): 4.5 ± 4.2%
- FS (% reduction from baseline) at 1 h (Mean ± SEM) (male Sprague Dawley rats [3]; 6 mg/kg oral): 51.9 ± 4.0%
- FS (% reduction from baseline) at 4 h (Mean ± SEM) (male Sprague Dawley rats [3]; 6 mg/kg oral): 15.0 ± 5.4%

Compound: CC(=O)N1CC2(C1)C(=O)N(c1ccc(C#N)cc1F)CC(=O)N2Cc1ccc(C(F)(F)F)cc1 [Compound 202, 4-(2-acetyl-6,9-dioxo-5-[[4-(trifluoromethyl)phenyl]methyl]-2,5,8-triazaspiro[3.5]nonan-8-yl)-3-fluorobenzonitrile]
- CDMF75 IC15 [1]: 0.8 µM
- % FS (% reduction from baseline) ± SEM ([2]; 5 μM): 68.4 ± 9.5%
- IC50 (male Sprague Dawley rats [4]): 3.24 ± 0.07 µM
- FS (% reduction from baseline) at 1 h (Mean ± SEM) (male Sprague Dawley rats [3]; 3 mg/kg oral): 21.88 ± 2.66%
- FS (% reduction from baseline) at 4 h (Mean ± SEM) (male Sprague Dawley rats [3]; 3 mg/kg oral): 11.25 ± 5.54%
- FS (% reduction from baseline) at 1 h (Mean ± SEM) (male Sprague Dawley rats [3]; 15 mg/kg oral): 51.08 ± 1.93%
- FS (% reduction from baseline) at 4 h (Mean ± SEM) (male Sprague Dawley rats [3]; 15 mg/kg oral): 20.18 ± 3.59%

Compound: CC(=O)N1CC[C@]2(C1)C(=O)N(c1ccc(C#N)cc1F)CC(=O)N2Cc1ccc(Cl)cc1 [Compound 206, (S)-4-(2-acetyl-6-(4-chlorobenzyl)-7,10-dioxo-2,6,9-triazaspiro[4.5]decan-9-yl)-3-fluorobenzonitrile]
- CDMF75 IC15 [1]: 0.5 µM
- % FS (% reduction from baseline) ± SEM ([2]; 10 μM): 95.1 ± 1.6%

Compound: N#Cc1ccc(N2CC(=O)N(Cc3ccc(C(F)(F)F)cc3)C3(CC3)C2=O)c(F)c1 [Compound 278, 4-(5,8-dioxo-4-(4-(trifluoromethyl)benzyl)-4,7-diazaspiro[2.5]octan-7-yl)-3-fluorobenzonitrile]
- CDMF75 IC15 [1]: 0.5 µM
- FS (% reduction from baseline) at 1 h (Mean ± SEM) (male Sprague Dawley rats [3]; 3 mg/kg oral): 15.8 ± 2.0%
- FS (% reduction from baseline) at 4 h (Mean ± SEM) (male Sprague Dawley rats [3]; 3 mg/kg oral): 10.6 ± 5.6%
- FS (% reduction from baseline) at 1 h (Mean ± SEM) (male Sprague Dawley rats [3]; 6 mg/kg oral): 34.4 ± 3.3%
- FS (% reduction from baseline) at 4 h (Mean ± SEM) (male Sprague Dawley rats [3]; 6 mg/kg oral): 12.2 ± 4.2%

Compound: CC(=O)N1CC2(C1)C(=O)N(c1ccc(C#N)cc1F)CC(=O)N2[C@@H](C)c1ccc(C(F)(F)F)cc1 [Compound 339, (S)-4-(2-acetyl-6,9-dioxo-5-(1-(4-(trifluoromethyl)phenyl)ethyl)-2,5,8-triazaspiro[3.5]nonan-8-yl)-3-fluorobenzonitrile]
- CDMF75 IC15 [1]: 0.5 µM
- FS (% reduction from baseline) at 1 h (Mean ± SEM) (male Sprague Dawley rats [3]; 2.5 mg/kg oral): 21.8 ± 2.8%
- FS (% reduction from baseline) at 4 h (Mean ± SEM) (male Sprague Dawley rats [3]; 2.5 mg/kg oral): 5.8 ± 4.4%
- FS (% reduction from baseline) at 1 h (Mean ± SEM) (male Sprague Dawley rats [3]; 5 mg/kg oral): 66.2 ± 2.9%
- FS (% reduction from baseline) at 4 h (Mean ± SEM) (male Sprague Dawley rats [3]; 5 mg/kg oral): 19.9 ± 2.0%

Compound: Cc1cc(Cl)cnc1N1CC(=O)N(Cc2ccc(Cl)cc2)C2(CN(c3ccc(C#N)cn3)C2)C1=O [Compound 886, 6-(8-(5-chloro-3-methyl-pyridin-2-yl)-5-(4-chloro-benzyl)-6,9-dioxo-2,5,8-triazaspiro[3.5]nonan-2-yl)nicotinonitrile]
- CDMF75 IC15 [1]: 0.7 µM

Compound: Cc1cc(Cl)cnc1N1CC(=O)N(Cc2ccc(F)cc2)C2(CN(c3ccc(C#N)cn3)C2)C1=O [Compound 887, 6-(8-(5-chloro-3-methyl-pyridin-2-yl)-5-(4-fluoro-benzyl)-6,9-dioxo-2,5,8-triazaspiro[3.5]nonan-2-yl)nicotinonitrile]
- CDMF75 IC15 [1]: 0.9 µM

Second part, led by results:

- CDMF75 IC15 [1]: 0.4 µM
Compound: CC(C)N1CC(=O)N(Cc2ccc(Cl)cc2)C2(CCN(c3ccccn3)C2)C1=O (single isomer, unassigned) [Compound 373A, 6-[(4-chlorophenyl)methyl]-9-(propan-2-yl)-2-(pyridin-2-yl)-2,6,9-triazaspiro[4.5]decane-7,10-dione]
- % FS (% reduction from baseline) ± SEM ([2]; 10 μM): 76.6 ± 8.8%

- CDMF75 IC15 [1]: 1.0 µM
Compound: O=C1C(C2COC2)N(Cc2ccc(C(F)(F)F)cc2)C(=O)CN1c1ncc(Cl)cc1F (single isomer, unassigned) [Compound 861A, 1-(5-chloro-3-fluoropyridin-2-yl)-3-(oxetan-3-yl)-4-(4-(trifluoromethyl)benzyl)piperazine-2,5-dione]
- % FS (% reduction from baseline) ± SEM ([2]; 5 μM): 88.0 ± 3.31%
- FS (% reduction from baseline) at 1 h (Mean ± SEM) (male Sprague Dawley rats [3]; 10 mg/kg oral): 13.4 ± 1.6%
- FS (% reduction from baseline) at 4 h (Mean ± SEM) (male Sprague Dawley rats [3]; 10 mg/kg oral): 2.0 ± 3.1%
- FS (% reduction from baseline) at 1 h (Mean ± SEM) (male Sprague Dawley rats [3]; 100 mg/kg oral): 50.0 ± 4.0%
- FS (% reduction from baseline) at 4 h (Mean ± SEM) (male Sprague Dawley rats [3]; 100 mg/kg oral): 48.8 ± 5.0%
